According to ChEMBL document CHEMBL1938373, “Structure-based design, synthesis and biological evaluation of N-pyrazole, N'-thiazole urea inhibitors of MAP kinase p38α” (Eur J Med Chem, 2012):
The source made the active and inactive calls. The calls are words filed in the database; no cut-off is given here.

Columns and labels:
[1] = target: T1, Mitogen-activated protein kinase 14 (Homo sapiens, UniProt Q16539); assay: Binding affinity to N-terminus His-tagged human p38alpha expressed in Escherichia coli BL21 DE3 at 1 nM to 10 uM after 5 hrs by fluorescence analysis
[2] = target: T1, Mitogen-activated protein kinase 14; assay: Inhibition of p38alpha-mediated MK2 phosphorylation in anisomysin-stimulated human HeLa cells after 2 hrs by immunoblot analysis
[3] = target: T1, Mitogen-activated protein kinase 14; assay: Inhibition of N-terminus His-tagged human p38alpha expressed in Escherichia coli BL21 DE3 using GST-tagged ATF2 as substrate after 90 mins by HTRF assay
[4] = target: T1, Mitogen-activated protein kinase 14
[5] = Solubility of the compound; type: physicochemical
[6] = target: T1, Mitogen-activated protein kinase 14; assay: Inhibition of p38alpha-mediated MK2 phosphorylation in anisomysin-stimulated human HeLa cells at 0.5 to 50 uM after 2 hrs by immunoblot analysis; type: cell-based

T1 sequence (Q16539 whole entry): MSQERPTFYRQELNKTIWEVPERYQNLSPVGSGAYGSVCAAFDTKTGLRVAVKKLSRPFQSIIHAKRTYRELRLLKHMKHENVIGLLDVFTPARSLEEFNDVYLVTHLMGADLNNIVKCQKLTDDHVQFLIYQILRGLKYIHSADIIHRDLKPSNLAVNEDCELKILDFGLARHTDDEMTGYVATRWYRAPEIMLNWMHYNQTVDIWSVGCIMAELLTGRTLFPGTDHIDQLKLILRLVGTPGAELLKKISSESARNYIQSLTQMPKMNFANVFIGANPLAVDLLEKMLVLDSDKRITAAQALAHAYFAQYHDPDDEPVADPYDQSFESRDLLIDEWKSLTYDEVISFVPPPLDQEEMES

| SMILES | Kd [4] [nM] | further results |
| --- | --- | --- |
| O=C(Nc1nc(CCOCc2ccccc2)cs1)c1cc(F)cc(N2CCOCC2)c1 | – | Activity [1]: inactive |
| CCOC(=O)Cc1ccc(-n2nc(C(C)(C)C)cc2NC(=O)Nc2nccs2)cc1 | 675 | IC50 [2]: 6000 nM; IC50 [3]: 639 nM |
| O=C(O)Cc1cccc(-n2nc(C3CC3)cc2NC(=O)Nc2nc(CCOCc3ccccc3)cs2)c1 | 14700 | – |
| Cc1ccc(-n2nc(C(C)(C)C)cc2NC(=O)Nc2nc(CCOCc3ccccc3)cs2)cc1 | 382 | – |
| Cc1ccc(-n2nc(C(C)(C)C)cc2NC(=O)Nc2nc(CCOCc3ccncc3)cs2)cc1 | 586 | – |
| O=C(Nc1ccc(Cl)c(C(F)(F)F)c1)Nc1nc(CCOCc2ccccc2)cs1 | – | solubility [5]: Insoluble |
| CC(C)(C)c1cc(NC(=O)Nc2nccs2)n(-c2ccc(CC(=O)O)cc2)n1 | 196 | IC50 [3]: 135 nM; inhibition [6]: inactive |
| CC(C)(C)c1cc(NC(=O)Nc2nc(CCOCc3ccccc3)cs2)n(-c2cccc(CC(=O)O)c2)n1 | 920 | – |
| NC(COCc1ccccc1)c1csc(NC(=O)Nc2ccc(Cl)c(F)c2)n1 (stereo not drawn) | 13400 | – |
| CC(C)(C)c1cc(NC(=O)Nc2nc(CCOCc3ccccc3)cs2)n(-c2ccc(CC(=O)O)cc2)n1 | 287 | – |
| Cc1ccc(-n2nc(C(C)(C)C)cc2NC(=O)Nc2nc(CCOCc3ccc(F)cc3)cs2)cc1 | 303 | – |
| O=C(O)Cc1ccc(-n2nc(C3CCCC3)cc2NC(=O)Nc2nc(CCOCc3ccccc3)cs2)cc1 | 901 | – |
| Cc1ccc(-n2nc(C(C)(C)C)cc2NC(=O)Nc2nccs2)cc1 | 990 | – |
| O=C(O)Cc1cccc(-n2nc(C3CCCC3)cc2NC(=O)Nc2nc(CCOCc3ccccc3)cs2)c1 | 580 | – |
